According to US6790957B2, “Triazole derivatives useful in therapy” (Pfizer, Inc., priority 1996, dated 2004):
Where two headings read alike, the source gives them in different places.

Test: Aqueous solubility of phosphate prodrugs compared with parent compounds
Type: physicochemical
Details: compounds of Examples in the form of their disodium salts
[1] = water (aqueous), read-out: Solubility

Row | solubility [1] | solubility | Compound
1 | > 150 mg/mL | – | O=P(O)(O)OC(Cn1cncn1)(Cn1cncn1)c1ccc(F)cc1F [Example 1, 2-(2,4-Difluorophenyl)-1,3-bis(1H-1,2,4-triazol-1-yl)-2-propyl Dihydrogen Phosphate]
2 | > 150 mg/mL | – | C[C@@H](c1ncncc1F)[C@@](Cn1cncn1)(OP(=O)(O)O)c1ccc(F)cc1F [Example 3, (2R,3S)-2-(2,4-Difluorophenyl)-3-(5-fluoro-4-pyrimidinyl)-1-(1H-1,2,4-triazol-1-yl)-2-butyl dihydrogen phosphate]
3 | – | >50 mg/mL | C[C@@H](c1ccc(-c2ccnn2C)cc1)[C@@](Cn1cncn1)(OP(=O)([O-])[O-])c1ccc(F)cc1F.[Na+].[Na+] [Example 8, (2R,3S)-2-(2,4-Difluorophenyl)-3-[4-(1-methylpyrazol-5-yl)phenyl]-1-(1,2,4-triazol-1-yl)-2-butyl disodium phosphate]
